Data published in patent US20200022963A1, “PHARMACEUTICAL COMPOSITION COMPRISING BETAHISTINE” (Otolanum AG, priority 2017, published 2020).

Key:
[1] = Single ascending-dose clinical trial of intranasal betahistine in healthy volunteers (safety); assay type: in vivo; conditions: human
Method: The safety and pharmacokinetic profile of intranasal betahistine was further evaluated in a double-blind, randomized, placebo-controlled, single ascending-dose clinical trial involving a total of 32 healthy male and female volunteers. The main inclusion criteria were that subjects had to be aged 18-45 years and show a body mass index within the range of 18-30 kg/m^2. Subjects were required to fast for 8 hours prior to study drug administration and for 2 hours post-dose.
The betahistine was supplied as a 50 and 200 mg/mL solution in a HDPE bottle and spray pump pack (Aptar Classic Line) that delivers an accurate 100 μL per actuation. The study drug was delivered into the right nostril of subjects while they were in a supine position. For the 5 and 20 mg doses, one application of 50 and 200 mg/mL, respectively, was needed, whereas for the 10 and 40 mg doses, two applications of 50 and 200 mg/mL were required.

[2] = Relative bioavailability of intranasal versus oral betahistine in humans, Example 6; assay type: in vivo; conditions: human
Method: (Journal of Psychopharmacology, 2016, Vol. 30(3) 237-241). In brief, in this study, forty-eight healthy women were recruited and randomized to receive per os (i.e. orally) either betahistine 144 mg/day (48 mg t.i.d.) or matching placebo for 4 weeks. […] Study medication (betahistine or matching placebo) was administered at least 30 minutes prior to eating. On Day 8, blood samples of 6 mL each were collected at 8 am, and 30, 60, 150 and 300 minutes thereafter. Plasma concentrations of betahistine and its metabolite 2-PAA were determined by high-performance liquidy chromatography.

[3] = Oral betahistine study in healthy women, Barak et al.; assay type: in vivo; conditions: human, oral 48 mg (0.8 mg/kg), Barak et al. data
Method: For the calculation of the relative bioavailability of intranasal betahistine compared to peroral betahistine, the area under the concentration-time curve (AUC) determined in Example 3 was compared to the AUC determined in a study with oral betahistine in healthy volunteers described in Barak et al. (Journal of Psychopharmacology, 2016, Vol. 30(3) 237-241). In brief, in this study, forty-eight healthy women were recruited and randomized to receive per os (i.e. orally) either betahistine 144 mg/day (48 mg t.i.d.) or matching placebo for 4 weeks. Their mean weight was 60.2 kg in the active-treated group (n=24) and 59.8 kg in the placebo group (n=24). Study medication (betahistine or matching placebo) was administered at least 30 minutes prior to eating. On Day 8, blood samples of 6 mL each were collected at 8 am, and 30, 60, 150 and 300 minutes thereafter. Plasma concentrations of betahistine and its metabolite 2-PAA were determined by high-performance liquidy chromatography.

[4] = Relative bioavailability of intranasal versus oral betahistine in humans, Example 6; assay type: in vivo; conditions: human; remark: listed apart in the source
[5] = human, cited from earlier work
[6] = Toxicokinetic assessment of plasma betahistine and 2-PAA after intranasal betahistine (LC-MS/MS), Example 2; conditions: both, beagle, dog, inhaled or intranasal
Method: The safety and pharmacokinetic profile of intranasal betahistine was first evaluated in a single dose toxicology study in male and female beagle dogs (14-21 months of age, weight 8.2-11.8 kg). Both the vehicle and test article were delivered in a single dose via a nasal spray pump (Aptar Classic Line) with a delivery volume of 100 μL into both nostrils at total dose levels of 0 (vehicle), 4, 20 or 80 mg of betahistine dihydrochloride. Each treatment group was made up of 1 dog/sex.
Plasma concentrations were measured with liquid chromatographic tandem mass spectrometry (LC-MS/MS; SCIEX API 5000 for betahistine and SCIEX API 4000 for 2-pyridylacetic acid (2-PAA)) with a validated method. Betahistine-^13CD3 dihydrochloride and 2-PAA-D4 hydrochloride served as internal standards. The standard calibration range—using a plasma sample volume of 0.05 mL—for betahistine was 0.05 to 50 ng/mL and for 2-PAA it was 1 to 1000 ng/mL. The limit of quantitation was 0.05 ng/mL for betahistine and 1.0 ng/mL for 2-PAA.
In case of betahistine, the method involved a liquid-liquid extraction; in case of 2-PAA it involved protein precipitation. For betahistine, plasma samples were extracted under basic conditions with an organic solvent; the organic phase was dried and reconstituted in reconstitution solvent. Approximately 0.1 mL of the aqueous layer was transferred into polypropylene vials for LC-MS/MS analysis. For 2-PAA, plasma samples were precipitated with a mixture of organic solvents, supernatant was diluted and 0.12 mL was transferred into polypropylene vials for LC-MS/MS analysis. Sample analysis was conducted using reversed phase chromatography.

CNCCc1ccccn1 [betahistine]
hematology, biochemistry, urinalysis, vital signs and electrocardiogram assessments ([1]; active- versus placebo-treated subjects): no differences
tolerability ([1]; intranasal 5, 10, 20 and 40 mg): well tolerated
bioavailability with intranasal administration higher than with oral administration [2]: 20-40 times
relative bioavailability fold factor ([2]; 40 mg intranasal vs. 48 mg per os): 41.1 ×
relative bioavailability of oral vs. intranasal ([2]; Barak et al. oral AUC vs Example 3 intranasal AUC): approximately 2.4%
Rel. Bioavail. ([2]; intranasal 5 mg relative to oral 48 mg (Barak et al.)): 19.9
Rel. Bioavail. ([2]; intranasal 10 mg relative to oral 48 mg (Barak et al.)): 24.2
Rel. Bioavail. ([2]; intranasal 20 mg relative to oral 48 mg (Barak et al.)): 37.0
Rel. Bioavail. ([2]; intranasal 40 mg relative to oral 48 mg (Barak et al.)): 41.1
AUC/Dose [3]: 0.15 (h · ng/mL)/(mg/kg)
AUC/Dose ([4]; intranasal 5 mg (0.07 mg/kg)): 3.01 (h · ng/mL)/(mg/kg)
AUC/Dose ([4]; intranasal 10 mg (0.15 mg/kg)): 3.67 (h · ng/mL)/(mg/kg)
AUC/Dose ([4]; intranasal 20 mg (0.29 mg/kg)): 5.60 (h · ng/mL)/(mg/kg)
AUC/Dose ([4]; intranasal 40 mg (0.57 mg/kg)): 6.21 (h · ng/mL)/(mg/kg)
AUC ([5]; oral 48 mg (0.8 mg/kg), Barak et al. data): 0.121 ng·h/mL
AUC(0-5h) ([5]; oral 48 mg t.i.d., approximately 0.8 mg/kg, Day 8, Barak et al.): 0.121 ng·h/mL
Tmax [6]: 5 min
Cmax ([6]; 4 mg): 26 ng/mL
Cmax ([6]; 20 mg): 81 ng/mL
Cmax ([6]; 80 mg): 248 ng/mL
